Earlier results, collected in patent publication US20150342872A1 (CRITITECH, INC., priority 2014, published 2015).

How the values were obtained:
[1] = 3-hour infusion, 135 versus 175 mg/m2
[2] = test system: microtubule bundling and cytotoxic effects

increase of AUC (0-∞) for a 30% increase in dose [1]: 89%
Structure (SMILES): CC(=O)O[C@H]1C(=O)[C@@]2(C)[C@H]([C@H](OC(=O)c3ccccc3)[C@]3(O)C[C@H](OC(=O)[C@H](O)[C@@H](NC(=O)c4ccccc4)c4ccccc4)C(C)=C1C3(C)C)[C@]1(OC(C)=O)CO[C@@H]1C[C@@H]2O [paclitaxel]
minimal concentration required to induce microtubule bundling and cytotoxic effects [2]: > 0.1 µmol/L
